The source of these data is patent US11260054B2, “Methods of treatment of cancer” (Pano Therapeutics, Inc., priority 2018, dated 2022).

Like-named read-outs stand apart in the source and are kept apart here.

Series [1] has as its system HTC116 Cell Line. The series can be described thus: Colorectal cancer cell survival assay (CellTiter-Glo). It counts as cell-based. The note with it: 72 hrs incubation. How it is done: HTC116 cells were grown overnight at 37° C., 5% CO2. Cells were then incubated for 72 hrs in humidified incubator at 37° C. and 5% CO2 with 5 m, AA6, metformin, S1QEL 1.1, or cisplatin at concentrations ranging from 100 μM-50 nM. Each condition was done in triplicate, and the structures of the compounds were not known to the experimenters. After the incubation, cells were lysed with CellTiter-Glo® Luminescent Cell Viability Assay reagent (Promega) and luminescence was read using an Envision plate reader.
The IC50s of 5 m, AA6, and cisplatin were similar with 5 m and AA6 having slightly lower IC50s. Metformin and S1Qel 1.1 had dramatically larger IC50s than 5 m, AA6, or cisplatin. Cell viability was plotted with GraphPad Prism version 5 and the IC50 was calculated for each compound. The graphical curves were fitted using a nonlinear regression model with a sigmoidal dose response.
In general terms: Cellular ATP, detected with luciferase, serves as a proxy for viable cell number.

Series [2] deals with PANC-1 Cell Line. As to the kind of experiment: Pancreatic cancer cell survival assay, PANC-1 (CellTiter-Glo). It is filed as cell-based. The note with it: 72 hrs incubation, read-out: Absolute IC50. As for the experimental part: (§1) PANC-1 and MiaPaCa-2 were grown overnight at 37° C., 5% CO2 and 95% humidity. PANC-1 was grown in DMEM+10% FBS and MIA PaCa-2 was grown in DMEM+10% FBS+2.5% H. Cells from each cell line were then incubated for 72 hrs in humidified incubator at 37° C. and 5% CO2 with 5 m, AA6, metformin, or cisplatin at concentrations ranging from 100 μM-50 nM. Each condition was done in triplicate, and the structures of the compounds were not known to the experimenters. After the incubation, cells were lysed with CellTiter-Glo® Luminescent Cell Viability Assay reagent (Promega) and luminescence was read using an EnVision plate reader (PerkinElmer). Cell viability was plotted with GraphPad Prism version 5 and the IC50 was calculated for each compound with each cell line. The graphical curves were fitted using a nonlinear regression model with a sigmoidal dose response.

Series [3] relates to MiaPaCa-2 Cell Line. The series can be described thus: Pancreatic cancer cell survival assay, MiaPaCa-2 (CellTiter-Glo). It counts as cell-based. To be noted: 72 hrs incubation, read-out: Absolute IC50. As for the experimental part:
as §1

Series [4] deals with HCT116 cells. As to the kind of experiment: Hypoxic cancer cell survival assay, normoxic vs hypoxic (CellTiter-Glo). It counts as cell-based. The note with it: for IC50: 72 hrs, read-out: Absolute IC50. How it is done: HCT116 cells were cultured in an atmosphere of 37° C., 5% CO2, 95% humidity, and with either 1% O2 (hypoxic) or 20% O2 (normoxic). No antibiotics were used in the cell culturing. HeLa cells were grown in parallel and samples were taken after 48 h and 72 h to confirm Hypoxia-inducible factor-1α (HIF-1α) expression by western blot.
HCT116 cells were then seeded on 6-well plates and incubated at 37° C., 5% CO2, and 95% humidity overnight. Cells previously cultured under hypoxic conditions were again incubated with 1% O2, and cells previously cultured under normoxic conditions were again incubated with 20% O2.
as §1, with “Hypoxic” for “PANC-1”, “normoxic cells” for “MiaPaCa-2 were grown overnight at 37° C., 5% CO2 and 95% humidity. PANC-1 was grown in DMEM+10% FBS and MIA PaCa-2 was grown in DMEM+10% FBS+2.5% H. Cells from each cell line”, “C., 5% CO2, 95% humidity,” for “C.”, “either 1% O2 (hypoxic) or 20% O2 (normoxic)” for “5% CO2”, “1 mM-50” for “100 μM-50”

Series [5] can be described thus: Pharmacokinetic parameters in mice, IV and oral. It counts as in vivo, BALB/c mice. To be noted: for Vd: BALB/c, iv. How it is done:
Fed BALB/c mice were administered either 2 mg/kg of 5 m intravenously via the tail vein or 10 mg/kg of 5 m orally. For both conditions, 5 m was dissolved in 10% DMSO/50% PEG400/40% Water. Blood was sampled at various timepoints after the compound was administered and was analyzed using AB Sciex API 4000 LC/MS/MS in positive ion mode.

Where [6] appears, read: Homo sapiens, HCT-116, 72 h, HCT116, hypoxic conditions (1% O2).
[7] abbreviates: HCT116, hypoxic conditions (1% O2).
The mark [8] stands for this setting: mouse, blood, IV, 2 mg/kg, fed BALB/c mice, mean N = 3.
Where [9] appears, read: mouse, blood, oral, 10 mg/kg, fed BALB/c mice, mean N = 3.

In the case of `CN(C)C(=N)N=C(N)N` [Metformin, reference compound], the IC50 in series [1] is > 100 µM; in series [2] (Homo sapiens, PANC-1, 72 h) it was > 5000 µM; in series [3] (Homo sapiens, MIA PaCa-2, 72 h), > 5000 µM; in series [4] (setting [6]), > 1000 µM; in series [4] (Homo sapiens, HCT-116, 72 h, HCT116, normoxic conditions (20% O2)), 71.8 µM. Besides, in series [4] (HCT116, hypoxic conditions, concentrations up to 1 mM), the dose response curve result is reported as “failed to result in a recognizable dose response curve”.
As for `CN(CCCCCCc1ccccc1)CCCCNC(=O)c1nc(Cl)c(NCc2ccc(Cl)cc2)nc1N` [AA6, 3-amino-6-chloro-5-((4-chlorobenzyl)amino)-N-(4-(methyl(6-phenylhexyl)amino)butyl)pyrazine-2-carboxamide], the IC50 is 3.6 µM in series [1]; 5.9 µM in series [2]; < 6 µM in series [2] (Homo sapiens, PANC-1, 72 h); 5.1 µM in series [3]; < 6 µM in series [3] (Homo sapiens, MIA PaCa-2, 72 h); 5 µM in series [4] (setting [7]). Further, in series [4] (setting [6]), the IC50 is < 6 µM.
On to `N/C(=N\C(=O)c1nc(Cl)c(NCc2ccc(I)cc2)nc1N)NCCCCc1ccccc1` [5m, (E)-3-amino-N-(amino((4-phenylbutyl)amino)methylene)-6-chloro-5-((4-iodobenzyl)amino)pyrazine-2-carboxamide], for which the IC50 in series [1] was 3.2 µM; in series [2] it was 4.7 µM; in series [2] (Homo sapiens, PANC-1, 72 h), < 6 µM; in series [3], 4.3 µM; in series [3] (Homo sapiens, MIA PaCa-2, 72 h), < 6 µM; in series [4] (setting [7]) it was 1.7 µM. For the same molecule, in series [4] (HCT116, normoxic conditions (20% O2)), the IC50 turned out to be 0.7 µM. Besides, the “apparent abnormal symptoms or toxicity during the assay” value in series [5] (2 mg/kg intravenously or 10 mg/kg orally, BALB/c mice) is “did not result in any apparent abnormal symptoms or toxicity”. Moreover, the Vd in series [5] (mouse, blood, 2 mg/kg, IV, 2 mg/kg, fed BALB/c mice, mean N = 3, read-out: Vss) is 9.41 L/kg; in series [5] (mouse, blood, 2 mg/kg, IV, 2 mg/kg, fed BALB/c mice, mean N = 3, read-out: Vz), 17.5 L/kg. In series [5] (IV, 2 mg/kg, fed BALB/c mice, mean N = 3), the “AUC Extr” value stood at 2.47%. For the same molecule, the half-life in series [5] (mouse, blood, IV, 2 mg/kg via tail vein, fed BALB/c mice, mean N = 3) is 5.3 h; in series [5] (setting [9]), 3.62 h. Moreover, the AUC(0-inf) in series [5] (setting [8]) was determined as 871 ng·h/mL; in series [5] (setting [9]), 41.5 ng·h/mL. Moreover, the AUC(0-t) in series [5] (setting [8]) turned out to be 849 ng·h/mL; in series [5] (setting [9]), 32.8 ng·h/mL. Moreover, in series [5] (setting [8]), the C0 was 3870 ng/mL. Moreover, in series [5] (setting [8]), the MRT inf came to 4.1 h. In series [5] (setting [8]), this molecule showed a clearance of 38.4 mL/min/kg. The molecule further gave a CL/F in series [5] (setting [9]) of 4030 mL/min/kg. In series [5] (setting [9]), this molecule registered a Cmax of 18.3 ng/mL. The Vd/F in series [5] (mouse, blood, oral, 10 mg/kg, fed BALB/c mice, mean N = 3, read-out: Vz/F) stood at 1270 L/kg. In addition, the F in series [5] (oral 10 mg/kg vs IV 2 mg/kg, fed BALB/c mice, mean N = 3) was determined as 0.773%.
On to `N.N.[Cl][Pt][Cl]` [Cisplatin, reference compound], for which the IC50 was 4.3 µM in series [1]; 12.2 µM in series [2] (listed as cisplatin); 14.2 µM in series [2]; 14.2 µM in series [3] (listed as cisplatin); 12.2 µM in series [3].

A word on the IC50: it is the midpoint of a concentration-inhibition curve. For orientation: half-life means the time in which the quantity being followed falls by half. A lower half-life goes with rapid decline. For orientation: AUC(0-inf) means total exposure, with the tail of the curve extrapolated. A high value points to high exposure. Usually AUC(0-t) stands for exposure summed from dosing to a finite time, without extrapolation to infinity. A high value points to high exposure. Usually MRT inf stands for a mean duration of stay, worked out from the concentration-time curve. The term CL/F denotes clearance divided by bioavailability, as obtained after extravascular dosing. One may read the Cmax as the maximum level reached in the sampled fluid or tissue.
